In the assay the target is (recombinant) catalytic domain of human Bub1 (amino acids 704-1085) (Homo sapiens (Human), UniProt O43683). Kind of assay: Bub1 kinase assay (TR-FRET). The assay is classed as biochemical. The note with it: ATP 10 μM final, peptide substrate 1 μM final, 60 min at 22° C., read-out: Biological Assay: Bub1 kinase assay median IC50. In a few lines:
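Readout was TR-FRET between a Eu-labeled antibody complex recognizing phosphoserine and streptavidin-XL665 on the biotinylated peptide, after EDTA stop and 1 h at 22° C. The kinase reaction ran for 60 min at 22° C. Values are means or medians of repeat tests, from 4-parameter fits normalized to enzyme-free and inhibitor-free controls.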
For orientation: Time-resolved FRET reads energy transfer from a long-lived donor to a nearby acceptor.

Among the data in patent US10428044B2, “3-amino-1,5,6,7-tetrahydro-4H-indol-4-ones” (Bayer Pharma Aktiengesellschaft, priority 2014, dated 2019) are IC50 values, retold here.

Molecules are shown by their SMILES. pIC50: −log10 of the molar value.

Sequence of (recombinant) catalytic domain of human Bub1 (amino acids 704-1085) (O43683 704-1085): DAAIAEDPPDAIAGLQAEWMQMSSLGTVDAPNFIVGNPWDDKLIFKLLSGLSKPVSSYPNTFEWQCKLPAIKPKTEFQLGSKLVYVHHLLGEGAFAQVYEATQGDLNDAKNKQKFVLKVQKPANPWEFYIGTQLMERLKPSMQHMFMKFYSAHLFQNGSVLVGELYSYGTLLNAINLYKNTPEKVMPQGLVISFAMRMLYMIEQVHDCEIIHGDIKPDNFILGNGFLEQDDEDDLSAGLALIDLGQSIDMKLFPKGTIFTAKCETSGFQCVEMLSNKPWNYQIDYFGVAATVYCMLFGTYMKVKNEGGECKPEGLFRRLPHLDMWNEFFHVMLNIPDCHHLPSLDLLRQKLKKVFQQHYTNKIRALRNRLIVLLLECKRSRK

On to `COc1cnccc1-c1[nH]c2c(c1Nc1ccccc1)C(=O)CCC2` [Example 413, 2-(3-methoxypyridin-4-yl)-3-(phenylamino)-1,5,6,7-tetrahydro-4H-indol-4-one], for which the pIC50 was 7.36.
As for `CC1(C)CC(=O)c2c([nH]c(-c3ccncc3)c2Nc2ccc(-c3ccccc3)cc2)C1` [Example 414, 3-(biphenyl-4-ylamino)-6,6-dimethyl-2-(pyridin-4-yl)-1,5,6,7-tetrahydro-4H-indol-4-one], the figure is below 4.70; as for `CC1(C)CC(=O)c2c([nH]c(-c3ccncc3)c2Nc2cccc(Cc3ccccc3)c2)C1` [Example 415, 3-[(3-benzylphenyl)amino]-6,6-dimethyl-2-(pyridin-4-yl)-1,5,6,7-tetrahydro-4H-indol-4-one], 6.55.
To `CC1(C)CC(=O)c2c([nH]c(-c3ccncc3)c2Nc2ccccc2Cc2ccccc2)C1` [Example 416, 3-[(2-benzylphenyl)amino]-6,6-dimethyl-2-(pyridin-4-yl)-1,5,6,7-tetrahydro-4H-indol-4-one] belongs 6.16.
As to `Cn1nccc1-c1cccc(Nc2c(-c3ccncc3)[nH]c3c2C(=O)CC(C)(C)C3)c1` [Example 417, 6,6-dimethyl-3-{[3-(1-methyl-1H-pyrazol-5-yl)phenyl]amino}-2-(pyridin-4-yl)-1,5,6,7-tetrahydro-4H-indol-4-one], the pIC50 is 6.56.
To `CC1(C)CC(=O)c2c([nH]c(-c3ccncc3)c2Nc2cccc(-c3ccsc3)c2)C1` [Example 418, 6,6-dimethyl-2-(pyridin-4-yl)-3-{[3-(thiophen-3-yl)phenyl]amino}-1,5,6,7-tetrahydro-4H-indol-4-one] belongs 7.58; to `CC1(C)CC(=O)c2c([nH]c(-c3ccncc3)c2Nc2cccc(-c3ccco3)c2)C1` [Example 419, 3-{[3-(furan-2-yl)phenyl]amino}-6,6-dimethyl-2-(pyridin-4-yl)-1,5,6,7-tetrahydro-4H-indol-4-one], 7.93; to `CC1(C)CC(=O)c2c([nH]c(-c3ccncc3)c2Nc2cccc(-c3cccs3)c2)C1` [Example 420, 6,6-dimethyl-2-(pyridin-4-yl)-3-{[3-(thiophen-2-yl)phenyl]amino}-1,5,6,7-tetrahydro-4H-indol-4-one], 7.60.
As for `CC1(C)CC(=O)c2c([nH]c(-c3ccncc3)c2Nc2cccc(Oc3ccccc3)c2)C1` [Example 421, 6,6-dimethyl-3-[(3-phenoxyphenyl)amino]-2-(pyridin-4-yl)-1,5,6,7-tetrahydro-4H-indol-4-one], the figure is 6.70; as for `CC1(C)CC(=O)c2c([nH]c(-c3ccncc3)c2Nc2cc(-c3ccccc3)ccn2)C1` [Example 422, 6,6-dimethyl-3-[(4-phenylpyridin-2-yl)amino]-2-(pyridin-4-yl)-1,5,6,7-tetrahydro-4H-indol-4-one], 6.48; as for `CC1(C)CC(=O)c2c([nH]c(-c3ccncc3)c2Nc2cccc(-c3ccccc3)n2)C1` [Example 423, 6,6-dimethyl-3-[(6-phenylpyridin-2-yl)amino]-2-(pyridin-4-yl)-1,5,6,7-tetrahydro-4H-indol-4-one], 7.57.
As for `CC1(C)CC(=O)c2c([nH]c(-c3ccncc3)c2Nc2ccccc2CO)C1` [Example 426, 3-{[2-(hydroxymethyl)phenyl]amino}-6,6-dimethyl-2-(pyridin-4-yl)-1,5,6,7-tetrahydro-4H-indol-4-one], the figure is 8.59; as for `CC1(C)CC(=O)c2c([nH]c(-c3ccncc3)c2Nc2ccccc2CCO)C1` [Example 427, 3-{[2-(2-hydroxyethyl)phenyl]amino}-6,6-dimethyl-2-(pyridin-4-yl)-1,5,6,7-tetrahydro-4H-indol-4-one], 8.08.
As for `C#Cc1cccc(Nc2c(-c3ccncc3)[nH]c3c2C(=O)CC(C)(C)C3)c1` [Example 428, 3-[(3-ethynylphenyl)amino]-6,6-dimethyl-2-(pyridin-4-yl)-1,5,6,7-tetrahydro-4H-indol-4-one], the pIC50 was 6.29.
To `CC1(C)CC(=O)c2c([nH]c(-c3ccncc3)c2Nc2ccccc2C(N)=O)C1` [Example 429, 2-{[6,6-dimethyl-4-oxo-2-(pyridin-4-yl)-4,5,6,7-tetrahydro-1H-indol-3-yl]amino}benzamide] belongs 7.15.
As for `CC1(C)CC(=O)c2c([nH]c(-c3ccncc3)c2Nc2ccc(S(N)(=O)=O)cc2)C1` [Example 432, 4-{[6,6-dimethyl-4-oxo-2-(pyridin-4-yl)-4,5,6,7-tetrahydro-1H-indol-3-yl]amino}benzenesulfonamide], the pIC50 was 5.63.
To `CC1(C)CC(=O)c2c([nH]c(-c3ccncc3)c2Nc2ccc(C#N)cc2)C1` [Example 433, 4-{[6,6-dimethyl-4-oxo-2-(pyridin-4-yl)-4,5,6,7-tetrahydro-1H-indol-3-yl]amino}benzonitrile] belongs 5.53.
As for `CN(C)c1ccc(Nc2c(-c3ccncc3)[nH]c3c2C(=O)CC(C)(C)C3)cc1` [Example 435, 3-{[4-(dimethylamino)phenyl]amino}-6,6-dimethyl-2-(pyridin-4-yl)-1,5,6,7-tetrahydro-4H-indol-4-one], the figure is 5.86; as for `O=C1CC(C(F)(F)F)Cc2[nH]c(-c3ccncc3Cl)c(Nc3cccc(F)c3)c21` (centres unmarked) [Example 436, 2-(3-chloropyridin-4-yl)-3-[(3-fluorophenyl)amino]-6-(trifluoromethyl)-1,5,6,7-tetrahydro-4H-indol-4-one], 7.68.
On to `CC1(C)CC(=O)c2c([nH]c(-c3ccnc(CO)c3)c2Nc2ccccc2)C1` [Example 437, 2-[2-(hydroxymethyl)pyridin-4-yl]-6,6-dimethyl-3-(phenylamino)-1,5,6,7-tetrahydro-4H-indol-4-one], for which the pIC50 is 6.24.
To `CC1(C)CC(=O)c2c([nH]c(-c3ccncc3C(F)(F)F)c2Nc2ccccc2)C1` [Example 438, 6,6-dimethyl-3-(phenylamino)-2-[3-(trifluoromethyl)pyridin-4-yl]-1,5,6,7-tetrahydro-4H-indol-4-one] belongs 6.46; to `CC1(C)CC(=O)c2c([nH]c(-c3ccnc(S(N)(=O)=O)c3)c2Nc2ccccc2)C1` [Example 439, 4-[6,6-dimethyl-4-oxo-3-(phenylamino)-4,5,6,7-tetrahydro-1H-indol-2-yl]pyridine-2-sulfonamide], 6.19; to `O=C1CC(CF)Cc2[nH]c(-c3ccncc3)c(Nc3ccccc3)c21` (centres unmarked) [Example 442, 6-(fluoromethyl)-3-(phenylamino)-2-(pyridin-4-yl)-1,5,6,7-tetrahydro-4H-indol-4-one], 8.16.
To `O=C1CC(CCl)Cc2[nH]c(-c3ccncc3)c(Nc3ccccc3)c21` (centres unmarked) [Example 443, 6-(chloromethyl)-3-(phenylamino)-2-(pyridin-4-yl)-1,5,6,7-tetrahydro-4H-indol-4-one] belongs 8.30; to `CC(=O)Nc1cc(-c2[nH]c3c(c2Nc2ccccc2)C(=O)CC(CCl)C3)ccn1` (centres unmarked) [Example 444, N-{4-[6-(chloromethyl)-4-oxo-3-(phenylamino)-4,5,6,7-tetrahydro-1H-indol-2-yl]pyridin-2-yl}acetamide], 8.34; to `CC1(C)CC(=O)c2c([nH]c(-c3ccncc3)c2Nc2ccccc2)C1O` (centres unmarked) [Example 445, 7-hydroxy-6,6-dimethyl-3-(phenylamino)-2-(pyridin-4-yl)-1,5,6,7-tetrahydro-4H-indol-4-one], 8.00.

As usually defined, the pIC50 is −log10 of the IC50, conventionally taken in molar units.
